Experimental data taken from article PMC12020277, “Pharmacology and macrophage modulation of HPGDS inhibitor PK007 demonstrate reduced disease severity in DMD-affected muscles of the mdx mouse model” (Skeletal Muscle, 2025).

Target: T1, hematopoietic prostaglandin D2 synthase (HPGDS) (Homo sapiens, UniProt O60760)
T1 construct: human recombinant
Assay: fluorescence polarisation probe-displacement assay (Cayman kit #[…]), recombinant human HPGDS
Type: binding

T1 sequence (O60760 whole entry): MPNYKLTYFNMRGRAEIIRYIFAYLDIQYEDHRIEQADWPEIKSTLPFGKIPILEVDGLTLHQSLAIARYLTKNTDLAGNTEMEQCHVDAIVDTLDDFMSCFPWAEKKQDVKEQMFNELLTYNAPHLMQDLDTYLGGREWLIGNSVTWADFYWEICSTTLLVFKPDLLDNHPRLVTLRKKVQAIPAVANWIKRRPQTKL

- IC50: 1.54 ± 0.26 µM
Substance: PK007
